Drawing on patent US8241679B2, “Composition comprising the extract of crude drug complex having neuroprotective activity for preventing and treating stroke and neurodegenerative diseases” (Neumed Inc., priority 2007, dated 2012), this text covers infarct volume for one molecule.

The test system of the test is MCAo in rats. Kind of test: MCAo experimental model, infarct volume (TTC staining). It counts as in vivo, Sprague-Dawley rat. The following applies: positive control, 45 mg/kg. As for the experimental part:
To determine the preventing effect of the extract of crude drug complex of the present invention on neuronal injury, following intraluminal suture method using animal model was performed by modifying well-mown method disclosed in the literature (Zea L. E. Stroke, 20, pp 84-91, 1989).
8-weeks old white male Sprague-Dawley rat weighing about 280 g was procured from Samtaco Co. Ltd. (Seoul), […] for 1 week providing with free access to water and feed and acclimated to experimental environment.
The rat was anesthetized with 5% isoflurane gas (mixed gas with the gas mixture consisting of 70% N2O and 30% O2 gas and 5% isoflurane) and maintained with 1% isoflurane gas during experiment.
The skin at the center of rat neck was excised and right CCA (common carotid artery) and ECA (external carotid artery) were isolated from neighboring tissue and nerves with care. […]
The body temperature was monitored and maintained at 37±0.5° C.
The caudal was excised and terminal tissue was discarded to obtain 6 numbers of brain slices with the thickness of 2 mm using by brain matrix. […] The volume of cerebral infarction region was calculated by the OPTIMAS program (Media Cybernetics Co., 6.51 version). To determine the exact volume of cerebral infarction region of right hemisphere excluding edema volume (A), the real volume of cerebral infarction (B) was calculated by following Empirical Formula 1 and 2. […]

In the case of `CN(C)c1ccc(O)c2c1C[C@H]1C[C@H]3[C@H](N(C)C)C(O)=C(C(N)=O)C(=O)[C@@]3(O)C(O)=C1C2=O` [minocycline], the infarct volume amounted to 20.5±2.85%.
